Test results: patent US8421457B2, “Methods and systems for magnetically resonating both a subject and a substance administered to the subject” (Applied Magnetics, LLC, priority 2008, dated 2013)

Key:
[1] = test system: diabetic peripheral neuropathy patients; assay: Case report: diabetic neuropathy drugs combined with MR treatment; assay type: in vivo, human; conditions: diabetic neuropathy in both feet, taking the drugs; resonated four times for one hour each
Excerpt: In one subject, a person suffered with diabetic neuropathy in both feet. […] The subject was taking the drugs Actos, Metaformin, and Lisinopril. The subject was resonated four times for one hour each time. […] As of fifteen months after the last treatment session, the sensation remained. Also, the subjects from Example 5 reported improvements with respect to symptoms relating to diabetic neuropathy (e.g., lack of sensation and pain).
In providing MR treatment to a subject with diabetic neuropathy, an amplitude of about 0.455 μG to about 0.53 μG, with a frequency of about 12.7 Hz to about 14.84 Hz may be used.

[2] = test system: patients with high cholesterol; assay: Case report: cholesterol drug combined with MR treatment; assay type: in vivo, human; conditions: person taking Lipitor; three MR treatments per week for twenty months
Protocol: In one example, a person was taking the drug Lipitor to manage their cholesterol levels. The subject began a series of three treatments per week for twenty months, and continuing on an ongoing basis. […] In order to provide MR treatment for cholesterol, the MR device settings may range from an amplitude from about 0.4998 μG to about 0.075 μG and a frequency from about 2.1 Hz to about 13.9996 Hz, or ranges within these ranges.

osteoarthritis patients = conditions: for results of continuing treatment / stiffness in hand, before treatment / pain in thumb, before treatment: person, taking the drugs; for results of continuing treatment: back pain (degenerative disk disease, sciatica), resonated approx. three times per week for more than one year; for stiffness in hand, before treatment / pain in thumb, before treatment: osteoarthritis, before MR; for stiffness in hand, before treatment: scale zero (feels great) to ten (feels terrible)
Excerpt: In one example, a person suffered from back pain due to degenerative disk disease in their low back and sciatica. […] The subject was resonated approximately three times per week for more than one year.
In another example, a person experienced arthritis pain in a number of joints, including their hips, hands, and shoulders. The subject also suffered from sciatica in their hips and legs. The subject was taking Celebrex. The subject was resonated at least three times per week for one to two hours per session.
In a further example, a person experienced osteoarthritis pain and stiffness in their hands and finger joints. […] The subject was resonated twice for one-half hour per treatment. The subject was asked to rate their pain on a scale of zero (feels great) to ten (feels terrible) before and after treatment.
Alternatively, an amplitude of about 0.01 μG to about 0.46 μG, with a frequency of about 0.2799 Hz to about 12.8765 Hz may be used.

injured patients = assay: Case reports: injuries, drugs combined with MR treatment; assay type: in vivo, human; conditions: person, taking the drugs; for elimination of pain and stiffness: injured right knee (old Meniscus tear), 3 MR treatments of 1 hour over 5 days
Excerpt: In another example, a person experienced pain and stiffness associated with a shoulder injury. The subject was taking Aspirin and Ibuprofin. The subject received two one-hour treatments three days apart. The result was a decrease in pain level of 50% and a decrease in stiffness of 50%.
In a further example, a person experienced pain and stiffness associated with an injured knee. The subject was taking Aspirin and Ibuprofin. Over the course of 5 days, the subject received 3 treatments, each lasting 1.5 hours. The result was a decrease in pain level of 50-100% and a decrease in stiffness of 50%.
In a further example, a person experienced pain and stiffness associated with an injured right knee that was the result of an old Meniscus tear injury. The subject was taking Aspirin and Ibuprofin. Over the course of 5 days, the subject received 3 treatments, each lasting 1 hour. The result was a 100% elimination of their pain an stiffness.
In another example, a person experienced pain and stiffness associated with an injured left knee. The subject was taking Aspirin and Ibuprofin. Over the course of three days, the subject received two treatments, each lasting one hour. The result was a decrease in pain level of 75% and a decrease in stiffness of 50%.
In providing MR treatment to a subject with pain and/or one or more injuries, an amplitude of about 0.01 μG to about 0.5 μG, with a frequency of about 0.2799 Hz to about 14.0 Hz may be used.

[3] = test system: migraine and headache patients; assay: Case reports: migraine and headache drugs combined with MR treatment; assay type: in vivo, human
Protocol: The subject was resonated ten times for 1 to 1.5 hours per treatment over a one-month period.
In another example, a person experienced pain associated with migraines. […] The subject received two one-hour treatments three months apart.
In a further example, a person experienced pain associated with severe headaches. The subject took Aspirin to treat the pain. The subject received one treatment for one hour.

subject with back pain = assay: Case reports: low back pain, drugs combined with MR treatment; assay type: in vivo, human; conditions: person, taking the drugs; for decrease in pain level and stiffness level: four one-hour MR treatments over eleven days; for decrease in stiffness level: one MR treatment of one hour
Excerpt: In one example, a person experienced pain and stiffness associated with their low back. The subject was taking Aspirin and Ibuprofen. Over the course of ten days, the subject received three treatments. The result was a decrease in pain level of 50-100%.
In another example, a person experienced pain and stiffness associated with their low back. The subject was taking Aspirin and Ibuprofen. Over the course of eleven days, the subject received four treatments, each lasting one hour. The result was a decrease in pain level and stiffness level of 75%.
In another example, a person experienced pain and stiffness associated with their low back. The subject was taking Aspirin and Ibuprofen. The subject received one treatment, lasting one hour. The result was a decrease in pain level of 60-70% and stiffness level of 90%.
In providing MR treatment to a subject with back pain, an amplitude of about 0.01 μG to about 0.457 μG, with a frequency of about 0.2799 Hz to about 12.8 Hz may be used.

fibromyalgia patients = assay: Case reports: fibromyalgia, drugs combined with MR treatment; assay type: in vivo, human; conditions: same subject; thirteen MR treatments within a two-month period
Protocol: In one example, a person experienced fibromyalgia for a number of years. The subject also experienced insomnia, restless legs, and chronic fatigue. The subject took the drug Naproxen (Aleve). The subject received seven consecutive days of 1 to 1.5 hour treatments.
Their primary complaint was back pain. […] The subject received thirteen treatments within a two-month period. […] Approximately two months after completing their first series of treatment, they began a second regimen of ten treatments within a two-month period.
In a further example, a person at least fifty years old suffered from fibromyalgia for a number of years. […] The subject received daily (when possible) treatments for approximately one year.

cancer patients = conditions: in vivo
Protocol: In one example, carboplaton and taxol are cancer drugs for treating cancer, including ovarian cancer.
For this protocol, the MR device settings may be, for example, amplitude=about 0.017 μG to about 0.3 μG, frequency=about 0.3 Hz to about 9.6 Hz, waveform=sine or square, and MR treatment duration=about 80 minutes.

[4] = injured knee, 3 MR treatments of 1.5 hours over 5 days
[5] = injured left knee, two one-hour MR treatments over three days
[6] = shoulder injury, two one-hour MR treatments three days apart
[7] = same subject, after being resonated twice for one-half hour per treatment, scale zero to ten

CN(C)C(=N)NC(=N)N [Metaformin]
result of treatment on sensation in feet [1]: sensation returned for touch, texture, and temperature

CC(C)c1c(C(=O)Nc2ccccc2)c(-c2ccccc2)c(-c2ccc(F)cc2)n1CC[C@@H](O)C[C@@H](O)CC(=O)O [Lipitor]
cholesterol levels [2]: at the best ratio in twenty years

CC(C)Cc1ccc(C(C)C(=O)O)cc1 (stereo not drawn) [Ibuprofin]
results of continuing treatment (osteoarthritis patients): significantly less pain, an improved range of motion, and improved sleep | stiffness in hand, before treatment (osteoarthritis patients): two | pain in thumb, before treatment (osteoarthritis patients; scale zero to ten): three | decrease in stiffness (injured patients; [4]): 50% | decrease in pain level (injured patients; [5]): 75% | decrease in stiffness (injured patients; [5]): 50% | elimination of pain and stiffness (injured patients): 100% | decrease in pain level (injured patients; [6]): 50% | decrease in stiffness (injured patients; [6]): 50% | results on migraines ([3]; person with migraines taking the drugs, resonated ten times, 1 to 1.5 hours, over one month): decreased frequency and duration of migraines | pain level before being resonated ([3]; person with migraines taking the drugs, scale of zero to ten): nine | reduction in pain level ([3]; person with migraines taking the drugs, two one-hour MR treatments three months apart): 50% | pain level after treatment ([3]; same subject, after ten MR treatments over one month, scale of zero to ten): two | decrease in pain level and stiffness level (subject with back pain): 75% | decrease in stiffness level (subject with back pain): 90%

NCCCC[C@H](N[C@@H](CCc1ccccc1)C(=O)O)C(=O)N1CCC[C@H]1C(=O)O [Lisinopril]
pain level after treatment, first series (fibromyalgia patients): 0.5 | result of treatment on sensation in feet [1]: sensation returned for touch, texture, and temperature

CC(=O)Oc1ccccc1C(=O)O [Aspirin]
results of continuing treatment (osteoarthritis patients): significantly less pain, an improved range of motion, and improved sleep | stiffness in hand, before treatment (osteoarthritis patients): two | pain in thumb, before treatment (osteoarthritis patients; scale zero to ten): three | pain in thumb, after treatment (osteoarthritis patients; [7]): zero | stiffness in hand, after treatment (osteoarthritis patients; [7]): zero | decrease in stiffness (injured patients; [4]): 50% | decrease in pain level (injured patients; [5]): 75% | decrease in stiffness (injured patients; [5]): 50% | elimination of pain and stiffness (injured patients): 100% | decrease in pain level (injured patients; [6]): 50% | decrease in stiffness (injured patients; [6]): 50% | pain before treatment ([3]; person, severe headaches, taking Aspirin, before MR): 6.5 | pain after treatment ([3]; same subject, after one MR treatment for one hour): zero | decrease in pain level and stiffness level (subject with back pain): 75% | decrease in stiffness level (subject with back pain): 90%

N.N.O=C([O-])C1(C(=O)[O-])CCC1.[Pt+2] [carboplaton]
reported effects after taking the cancer drugs (cancer patients): increased lethargy and decreased energy and motivation

CCc1ccc(CCOc2ccc(CC3SC(=O)NC3=O)cc2)nc1 (stereo not drawn) [Actos]
result of treatment on sensation in feet [1]: sensation returned for touch, texture, and temperature
